Activity calls are given as the source filed them. No cut-off for these calls is given here.
What was measured:
[1] = biological target: Cyclin-dependent kinase 1/cyclin B1 (Homo sapiens, UniProt P06493); test: Inhibition of recombinant CDK1/cyclin B1 (unknown origin) using protein as substrate; assay type: protein-complex assay
[2] = biological target: Inhibitor of nuclear factor kappa-B kinase subunit beta (Homo sapiens, UniProt O14920); test: Inhibition of recombinant IKK-2 (unknown origin) using peptide as substrate
[3] = biological target: Vascular endothelial growth factor receptor 2 (Homo sapiens, UniProt P35968); test: Inhibition of recombinant KDR (unknown origin) using poly[Glu:Tyr] (4:1) as substrate
Homo sapiens = organism: Homo sapiens; test: Selectivity ratio of IC50 for recombinant Src (unknown origin) to IC50 for recombinant N-terminal His6-tagged HER2 cytoplasmic domain (676 to 1255 residues)(unknown origin) expressed in baculovirus infected Sf9 insect cells
SK-BR-3 = test: Antiproliferative activity against human SK-BR-3 cells measured after 2 days by sulforhodamine B assay; assay type: functional, cell-based; settings: SK-BR-3, 48 h
SW-620 = test: Antiproliferative activity against human SW620 cells measured after 2 days by sulforhodamine B assay; assay type: functional, cell-based; settings: SW-620, 48 h
[4] = biological target: Epidermal growth factor receptor (Homo sapiens, UniProt P00533); test: Inhibition of EGF-induced EGFR phosphorylation in human A-431 cells at 1 uM incubated for 3 hrs followed by compound washout and further incubated for 5 hrs by Western blot analysis relative to control; assay type: cell-based
[5] = biological target: T1, Receptor tyrosine-protein kinase erbB-2 (Homo sapiens, UniProt P04626); test: Inhibition of [14C]HKI-272 binding to recombinant N-terminal His6-tagged HER2 cytoplasmic domain (676 to 1255 residues)(unknown origin) expressed in baculovirus infected Sf9 insect cells at 5 uM measured after 15 mins by fluorography
[6] = biological target: T1, Receptor tyrosine-protein kinase erbB-2; test: Binding affinity to HER2 in human […] cells at 1 uM measured after 15 mins by immunoprecipitation assay; assay type: cell-based; settings: BT-474
[7] = biological target: Retinoblastoma-associated protein (Homo sapiens) (UniProt P06400); test: Inhibition of Rb phosphorylation in human BT-474 cells at 1 to 10 nM incubated for 12 to 16 hrs by Western blot analysis; assay type: cell-based; settings: dose 1-10 nM, time 12-16 hrs
BT-474 [8] = test: Cell cycle arrest in human BT-474 cells assessed as accumulation of cells at Sub-G1 phase at 1 nM measured after 12 to 16 hrs by propidium iodide staining based flow cytometry (reference value: 8%); assay type: functional; settings: time 12-16 hrs
BT-474 [9] = test: Cell cycle arrest in human BT-474 cells assessed as accumulation of cells at Sub-G1 phase at 2 nM measured after 12 to 16 hrs by propidium iodide staining based flow cytometry (reference value: 8%); assay type: functional; settings: time 12-16 hrs
BT-474 [10] = test: Cell cycle arrest in human BT-474 cells assessed as accumulation of cells at G0-G1 phase at 1 nM measured after 12 to 16 hrs by propidium iodide staining based flow cytometry (reference value: 61%); assay type: functional; settings: time 12-16 hrs
BT-474 [11] = test: Cell cycle arrest in human BT-474 cells assessed as accumulation of cells at S phase at 0.4 nM measured after 12 to 16 hrs by propidium iodide staining based flow cytometry (reference value: 21%); assay type: functional; settings: time 12-16 hrs
BT-474 [12] = test: Cell cycle arrest in human BT-474 cells assessed as accumulation of cells at S phase at 2 nM measured after 12 to 16 hrs by propidium iodide staining based flow cytometry (reference value: 21%); assay type: functional; settings: time 12-16 hrs
BT-474 [13] = test: Cell cycle arrest in human BT-474 cells assessed as accumulation of cells at S phase at 1 nM measured after 12 to 16 hrs by BrdUrd uptake assay (reference value: 26%); assay type: functional; settings: time 12-16 hrs
BT-474 [14] = test: Cell cycle arrest in human BT-474 cells assessed as accumulation of cells at G2/M phase at 1 nM measured after 12 to 16 hrs by propidium iodide staining based flow cytometry (reference value: 11%); assay type: functional; settings: time 12-16 hrs
BT-474 [15] = test: Cell cycle arrest in human BT-474 cells assessed as accumulation of cells at G2/M phase at 2 nM measured after 12 to 16 hrs by propidium iodide staining based flow cytometry (reference value: 11%); assay type: functional; settings: time 12-16 hrs
BT-474 [16] = test: Cell cycle arrest in human BT-474 cells assessed as reduction in accumulation of cells at S phase measured after 12 to 16 hrs by BrdUrd uptake assay; assay type: functional, cell-based
BT-474 [17] = test: Cell cycle arrest in human BT-474 cells assessed as increase in accumulation of cells at sub-G1 phase at >2 nM measured after 12 to 16 hrs by propidium iodide staining based flow cytometry; assay type: functional; settings: time 12-16 hrs
NIH3T3 [18] = test: Antitumor activity against mouse 3T3 cells transfected with HER-2 oncogene implanted in po dosed athymic nude mouse assessed as tumor growth inhibition administered daily for 10 days via gavage and measured on day 21; assay type: functional, organism-based; settings: dose 20-80 mg/kg, time 21.0 day
NIH3T3 [19] = test: Antitumor activity against mouse 3T3 cells transfected with HER-2 oncogene implanted in athymic nude mouse assessed as tumor growth inhibition at 20 mg/kg, po administered daily for 10 days via gavage and measured on day 21 relative to control; assay type: functional; settings: NIH3T3, 504 h, time 21 day, read-out: TGI
NIH3T3 [20] = test: Antitumor activity against mouse 3T3 cells transfected with HER-2 oncogene implanted in athymic nude mouse assessed as tumor growth inhibition at 40 mg/kg, po administered daily for 10 days via gavage and measured on day 14 relative to control; assay type: functional; settings: NIH3T3, 336 h, time 14 day, read-out: TGI
BT-474 [21] = test: Antitumor activity against human BT-474 cells xenografted in athymic nude mouse assessed as tumor growth inhibition at 40 mg/kg, po administered daily for 20 days via gavage and measured on day 21 relative to control; assay type: functional; settings: BT-474, 504 h, time 21 day, read-out: TGI
[22] = In vivo inhibition of HER2 autophosphorylation in human BT-474 cells xenografted athymic nude mouse at 40 mg/kg, po administered as single dose via gavage measured after 24 hrs by immunoblot analysis relative to control; assay type: functional
A-431 [23] = test: Antitumor activity against human A-431 cells xenografted in athymic nude mouse assessed as tumor growth inhibition at 5 mg/kg, po administered daily for 10 days via gavage and measured on day 15 relative to control; assay type: functional; settings: A-431, 360 h, time 15 day, read-out: TGI
A-431 [24] = test: Antitumor activity against human A-431 cells xenografted in athymic nude mouse assessed as tumor growth inhibition at 20 mg/kg, po administered daily for 10 days via gavage and measured on day 15 relative to control; assay type: functional; settings: A-431, 360 h, time 15 day, read-out: TGI
MCF7 = test: Antitumor activity against human MCF7 cells xenografted in athymic nude mouse assessed as tumor growth inhibition up to 80 mg/kg, po administered daily for 20 days via gavage and measured on day 28 relative to control; assay type: functional; settings: time 28 day
MX1 = test: Antitumor activity against human MX1 cells xenografted in athymic nude mouse assessed as tumor growth inhibition; assay type: functional, cell-based
[25] = Terminal half life in nude mouse at 20 mg/kg, po administered as single dose; assay type: ADME, organism-based; settings: in vivo, read-out: beta t1/2 (converted)
[26] = Toxicity in mouse 3T3 cells transfected with HER-2 oncogene implanted athymic nude mouse assessed as body weight loss at 20 to 80 mg/kg, po administered daily for 10 days; assay type: organism-based, NIH3T3; settings: in vivo, 240 h, dose 20-80 mg/kg, time 10 day
[27] = Toxicity in mouse 3T3 cells transfected with HER-2 oncogene implanted athymic nude mouse at 20 to 80 mg/kg, po administered daily for 10 days; assay type: organism-based, NIH3T3; settings: in vivo, 240 h, dose 20-80 mg/kg, time 10 day

T1 sequence (P04626 whole entry, the tested form may be a part): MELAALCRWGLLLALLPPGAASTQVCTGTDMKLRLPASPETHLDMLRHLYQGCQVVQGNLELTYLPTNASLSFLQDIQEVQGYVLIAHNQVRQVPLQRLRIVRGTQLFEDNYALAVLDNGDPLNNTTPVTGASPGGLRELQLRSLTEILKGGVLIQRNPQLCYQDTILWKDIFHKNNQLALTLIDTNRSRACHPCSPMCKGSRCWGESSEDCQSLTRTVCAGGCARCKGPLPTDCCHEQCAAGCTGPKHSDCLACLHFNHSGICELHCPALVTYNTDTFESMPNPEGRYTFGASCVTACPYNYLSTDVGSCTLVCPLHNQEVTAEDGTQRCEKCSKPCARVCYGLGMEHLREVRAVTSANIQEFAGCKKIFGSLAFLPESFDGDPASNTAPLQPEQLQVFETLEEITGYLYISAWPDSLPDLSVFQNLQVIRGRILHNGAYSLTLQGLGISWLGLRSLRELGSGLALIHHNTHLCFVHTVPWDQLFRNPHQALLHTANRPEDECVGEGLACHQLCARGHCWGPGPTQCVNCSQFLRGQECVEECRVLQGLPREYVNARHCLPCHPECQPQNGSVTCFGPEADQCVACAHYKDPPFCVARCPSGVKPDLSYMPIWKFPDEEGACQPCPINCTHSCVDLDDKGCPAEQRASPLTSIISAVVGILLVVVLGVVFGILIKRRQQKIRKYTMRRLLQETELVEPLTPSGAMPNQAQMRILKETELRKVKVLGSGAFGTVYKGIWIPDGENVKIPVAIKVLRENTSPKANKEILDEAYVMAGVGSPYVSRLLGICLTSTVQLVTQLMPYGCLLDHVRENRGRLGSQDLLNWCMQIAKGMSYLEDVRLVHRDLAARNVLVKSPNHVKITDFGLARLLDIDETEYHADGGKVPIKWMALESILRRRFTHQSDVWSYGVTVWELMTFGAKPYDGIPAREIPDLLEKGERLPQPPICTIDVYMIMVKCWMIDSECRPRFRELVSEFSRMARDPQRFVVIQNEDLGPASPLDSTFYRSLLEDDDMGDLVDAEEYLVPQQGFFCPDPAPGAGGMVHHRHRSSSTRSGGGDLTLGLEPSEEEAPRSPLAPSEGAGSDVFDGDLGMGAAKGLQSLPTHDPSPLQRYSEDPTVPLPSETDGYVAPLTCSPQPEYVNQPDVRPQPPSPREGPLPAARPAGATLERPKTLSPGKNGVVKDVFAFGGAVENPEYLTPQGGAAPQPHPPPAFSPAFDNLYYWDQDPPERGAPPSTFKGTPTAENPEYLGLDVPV
Vascular endothelial growth factor receptor 2, sequence (P35968 whole entry, the tested form may be a part): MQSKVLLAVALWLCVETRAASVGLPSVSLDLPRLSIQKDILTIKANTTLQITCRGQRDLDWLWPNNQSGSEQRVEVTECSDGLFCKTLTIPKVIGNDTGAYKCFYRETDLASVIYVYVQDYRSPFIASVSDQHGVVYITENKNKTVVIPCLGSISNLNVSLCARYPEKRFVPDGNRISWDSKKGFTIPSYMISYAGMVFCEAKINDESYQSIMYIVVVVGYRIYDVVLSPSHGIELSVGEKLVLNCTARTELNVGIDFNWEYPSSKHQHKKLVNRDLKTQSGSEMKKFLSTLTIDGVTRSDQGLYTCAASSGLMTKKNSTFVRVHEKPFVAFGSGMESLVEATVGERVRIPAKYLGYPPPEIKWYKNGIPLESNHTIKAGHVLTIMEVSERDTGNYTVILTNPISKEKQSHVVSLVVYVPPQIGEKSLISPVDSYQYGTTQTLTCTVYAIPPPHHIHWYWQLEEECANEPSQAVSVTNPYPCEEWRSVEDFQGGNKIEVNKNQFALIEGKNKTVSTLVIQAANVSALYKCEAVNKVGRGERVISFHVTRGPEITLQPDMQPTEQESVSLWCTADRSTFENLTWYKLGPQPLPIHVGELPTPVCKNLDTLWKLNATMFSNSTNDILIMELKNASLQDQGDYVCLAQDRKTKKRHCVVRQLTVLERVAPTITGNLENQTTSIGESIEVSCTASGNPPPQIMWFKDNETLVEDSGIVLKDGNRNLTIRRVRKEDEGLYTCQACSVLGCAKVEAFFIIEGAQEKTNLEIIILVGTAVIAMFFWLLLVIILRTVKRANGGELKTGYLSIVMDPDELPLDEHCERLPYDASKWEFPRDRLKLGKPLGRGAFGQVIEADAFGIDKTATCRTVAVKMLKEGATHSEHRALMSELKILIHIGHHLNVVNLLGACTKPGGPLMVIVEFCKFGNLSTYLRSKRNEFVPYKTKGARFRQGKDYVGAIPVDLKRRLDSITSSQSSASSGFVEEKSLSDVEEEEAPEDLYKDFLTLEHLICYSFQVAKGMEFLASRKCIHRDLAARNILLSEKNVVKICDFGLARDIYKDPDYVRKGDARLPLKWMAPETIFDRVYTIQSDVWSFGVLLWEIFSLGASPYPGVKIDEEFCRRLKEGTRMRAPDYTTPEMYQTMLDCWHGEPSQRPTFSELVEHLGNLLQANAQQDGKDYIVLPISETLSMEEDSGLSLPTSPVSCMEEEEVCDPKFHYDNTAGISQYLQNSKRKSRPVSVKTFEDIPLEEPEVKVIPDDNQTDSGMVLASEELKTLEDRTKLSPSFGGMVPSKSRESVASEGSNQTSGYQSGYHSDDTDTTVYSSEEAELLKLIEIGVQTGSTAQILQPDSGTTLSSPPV
Epidermal growth factor receptor, sequence (P00533 whole entry, the tested form may be a part): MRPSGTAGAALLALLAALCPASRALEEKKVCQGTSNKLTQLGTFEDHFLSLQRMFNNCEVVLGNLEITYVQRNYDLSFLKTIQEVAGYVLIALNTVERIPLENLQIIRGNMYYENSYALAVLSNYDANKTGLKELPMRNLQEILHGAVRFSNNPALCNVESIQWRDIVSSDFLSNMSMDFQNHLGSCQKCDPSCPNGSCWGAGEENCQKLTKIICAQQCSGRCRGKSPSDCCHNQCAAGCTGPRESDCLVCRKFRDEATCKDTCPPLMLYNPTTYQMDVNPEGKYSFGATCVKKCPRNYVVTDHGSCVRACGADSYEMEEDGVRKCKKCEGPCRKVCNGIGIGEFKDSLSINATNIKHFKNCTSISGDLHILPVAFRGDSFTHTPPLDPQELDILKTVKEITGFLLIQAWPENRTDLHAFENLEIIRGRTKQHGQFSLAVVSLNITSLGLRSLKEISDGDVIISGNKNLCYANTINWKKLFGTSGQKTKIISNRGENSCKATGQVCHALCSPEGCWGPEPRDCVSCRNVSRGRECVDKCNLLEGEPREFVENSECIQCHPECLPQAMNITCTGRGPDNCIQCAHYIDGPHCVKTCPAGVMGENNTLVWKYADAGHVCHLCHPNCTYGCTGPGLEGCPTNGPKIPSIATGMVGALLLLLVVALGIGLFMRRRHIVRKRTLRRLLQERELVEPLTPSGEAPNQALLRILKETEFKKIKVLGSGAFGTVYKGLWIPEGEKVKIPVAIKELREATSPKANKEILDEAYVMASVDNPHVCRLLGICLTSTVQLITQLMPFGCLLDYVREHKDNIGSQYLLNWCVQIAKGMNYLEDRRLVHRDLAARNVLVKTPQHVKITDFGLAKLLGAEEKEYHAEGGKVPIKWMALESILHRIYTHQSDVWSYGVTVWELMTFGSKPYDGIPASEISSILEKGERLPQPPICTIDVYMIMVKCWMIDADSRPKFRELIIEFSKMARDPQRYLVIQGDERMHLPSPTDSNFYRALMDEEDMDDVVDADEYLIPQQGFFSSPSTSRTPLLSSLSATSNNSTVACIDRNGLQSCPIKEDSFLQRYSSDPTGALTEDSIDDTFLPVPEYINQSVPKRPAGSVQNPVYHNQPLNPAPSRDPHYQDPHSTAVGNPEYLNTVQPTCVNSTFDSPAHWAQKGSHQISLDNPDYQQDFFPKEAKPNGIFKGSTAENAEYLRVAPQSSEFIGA
Inhibitor of nuclear factor kappa-B kinase subunit beta, sequence (O14920 whole entry): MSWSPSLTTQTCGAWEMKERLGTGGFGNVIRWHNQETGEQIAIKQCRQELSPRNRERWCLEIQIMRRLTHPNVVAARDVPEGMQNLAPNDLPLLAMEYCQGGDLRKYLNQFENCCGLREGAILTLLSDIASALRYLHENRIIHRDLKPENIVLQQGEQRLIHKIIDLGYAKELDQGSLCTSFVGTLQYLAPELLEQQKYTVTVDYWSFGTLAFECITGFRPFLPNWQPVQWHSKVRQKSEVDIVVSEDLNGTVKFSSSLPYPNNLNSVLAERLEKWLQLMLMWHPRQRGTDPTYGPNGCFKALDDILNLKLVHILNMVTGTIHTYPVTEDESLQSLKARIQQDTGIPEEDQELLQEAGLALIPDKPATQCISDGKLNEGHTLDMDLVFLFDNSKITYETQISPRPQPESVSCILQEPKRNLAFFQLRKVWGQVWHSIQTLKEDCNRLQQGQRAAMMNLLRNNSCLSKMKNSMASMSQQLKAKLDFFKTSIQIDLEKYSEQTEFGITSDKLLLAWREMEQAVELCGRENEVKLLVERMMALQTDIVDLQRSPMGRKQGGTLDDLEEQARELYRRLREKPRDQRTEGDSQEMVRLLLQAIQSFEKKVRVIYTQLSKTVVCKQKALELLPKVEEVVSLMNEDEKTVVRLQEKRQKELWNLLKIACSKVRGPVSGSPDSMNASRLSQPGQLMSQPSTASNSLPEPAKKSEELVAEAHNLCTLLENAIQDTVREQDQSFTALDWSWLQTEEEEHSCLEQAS

IC50 [1]: > 18000 nM | IC50 [2]: > 9000 nM | IC50 [3]: 800 nM | IC50 (SK-BR-3): 2 nM | IC50 (SW-620): 690 nM | inhibition [4]: 105% | inhibition [5]: Active | Activity [6]: Active | inhibition [7]: Active | IC50 (BT-474 [16]): 2 nM | half-life [25]: ~4 h
Structure (SMILES): COc1cc2ncc(C#N)c(Nc3ccc(OCc4ccccn4)c(Cl)c3)c2cc1NC(=O)/C=C/CN(C)C
Ratio IC50 (Homo sapiens): 24 | Activity (BT-474 [8]): 7% | Activity (BT-474 [9]): 11% | Activity (BT-474 [10]): 69% | Activity (BT-474 [11]): 12% | Activity (BT-474 [12]): 12% | Activity (BT-474 [13]): 12% | Activity (BT-474 [14]): 14% | Activity (BT-474 [15]): 11% | Activity (BT-474 [17]): Active | TGI (NIH3T3 [18]): Dose-Dependent Effect | inhibition in vivo at 20 mg/kg (NIH3T3 [19]): 53% | inhibition in vivo at 40 mg/kg (NIH3T3 [20]): 98% | inhibition in vivo at 40 mg/kg (BT-474 [21]): 88% | inhibition in vivo at 40 mg/kg [22]: 43% | inhibition in vivo at 5 mg/kg (A-431 [23]): 32% | inhibition in vivo at 20 mg/kg (A-431 [24]): 44% | TGI (MCF7): 28% | TGI (MX1): inactive | Activity [26]: Non-Toxic | Activity [27]: Non-Toxic
